Where two headings read alike, the source gives them in different places.
What was measured:
[1] = Cytotoxicity assay (CellTiter Glo); assay type: cell-based; details: human; HepG2.2.15 cells, five days post treatment
Experimental: The Invention Determined Cytotoxicity of the Compounds Against HepG2.2.15 Cells (Table 2)
HepG2.2.15 cells were seeded into 96-well plates (8000 cells per well) and cell viability was measured by the addition of 60 μL of CellTiter Glo reagent (Promega) five days post treatment with the compounds. Cell plates with CellTiter Glo added were shaken on a plate shaker for 20 min and then the chemiluminescence signal was stabilized at room temperature for 10 min. Chemiluminescence values were read using a microplate reader (Bio-TeK SYNERGY NEO2).
The concentration corresponding to 50% cytotoxicity (CC50) was fitted by graphpad prism software. The cytotoxicity was calculated by the formula: % Cytotoxicity=100−(chemiluminescence value of sample Well −average chemiluminescence value of blank medium column)/(average chemiluminescence value of DMSO column −average chemiluminescence value of blank medium column)*100

[2] = Pharmacokinetics (PK) evaluation in mice; assay type: in vivo; details: ICR mice, po 10 mg/kg; for Kp at 0.5 h / Kp at 1 h / Kp at 3 h / Kp at 5 h / concentration at 0.5 h / concentration at 1 h / concentration at 3 h / concentration at 5 h / AUC(0-t) / Cmax: mouse; for Kp at 0.5 h / Kp at 1 h / Kp at 3 h / Kp at 5 h: liver/plasma, read-out: Liver/Plasma ratio
Experimental: Pharmacokinetics (PK) Evaluation in Mice Test compounds were administered to ICR mice by gavage (po). The po dose was 10 mg/kg, and the vehicle formulation was 10% DMSO+40% PEG400+50% Saline (0.9% saline). Animals were fasted overnight (10-14 h) before administration and fed 4 h after administration. Blood was collected into heparin sodium anticoagulated tubes at multiple time points (0.5, 1, 3, 5 hours) after administration. Mice were euthanized with CO2 and livers were collected at multiple time points (0.5, 1, 3,5 h). The drug concentrations in plasma and liver were analyzed by LC-MS/MS method. Phenix WinNonlin was used to calculate the pharmacokinetic parameters.

[3] = system: HBV (hepatitis B virus) in HepG2.2.15 cells; test: Cell-based anti-viral activity assay (HBV DNA in supernatant by quantitative PCR); details: 120 h, anti-HBV activity, HepG2.2.15 cells, 5 days, read-out: EC50 (HepG2.2.15)
Outline: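 HepG2.2.15 cells (stably carrying HBV genome) treated with 3.16-fold compound dilutions, final 1% DMSO, for 5 days at 37 °C. Supernatant HBV DNA quantified by qPCR against a standard curve; % inhibition normalised to DMSO and high-concentration reference compound wells.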

[4] = liver, read-out: Liver drug conc.
[5] = plasma, read-out: Plasm drug conc.

SMILES: CCOC(=O)C1=C(CN2CCN3C(=O)N(C45CC(CC(=O)O)(C4)C5)C[C@@H]3C2)NC(c2nccs2)=N[C@H]1c1cccc(F)c1C [Compound 22, 2-(3-((S)-7-(((S)-5-(Ethoxycarbonyl)-6-(3-Fluoro-2-Methylphenyl)-2-(Thiazol-2-Yl)-3,6-Dihydropyrimidin-4-Yl)Methyl)-3-Oxohexahydroimidazo[1,5-a]Pyrazin-2(3H)-Yl)Bicyclo[1.1.1]Pentan-1-Yl)Acetic Acid]
- CC50 at 5 days [1]: > 50000 nM
- Liver AUC(0→t) [2]: 231116 ng·h/g
- Liver Cmax [2]: 102141 ng/g
- Kp at 0.5 h [2]: 120
- Kp at 1 h [2]: 115
- Kp at 3 h [2]: 137
- Kp at 5 h [2]: 297
- concentration at 0.5 h [2, 4]: 102000 ng/g
- concentration at 1 h [2, 4]: 94800 ng/g
- concentration at 3 h [2, 4]: 24700 ng/g
- concentration at 5 h [2, 4]: 12200 ng/g
- AUC(0-t) ([2]; plasma): 1860 ng·h/mL
- Cmax ([2]; plasma): 849 ng/mL
- concentration at 0.5 h [2, 5]: 849 ng/mL
- concentration at 1 h [2, 5]: 826 ng/mL
- concentration at 3 h [2, 5]: 180 ng/mL
- concentration at 5 h [2, 5]: 41 ng/mL
- EC50 [3]: 7 nM

SMILES: CCOC(=O)C1=C(CN2CCN3C(=O)N(C45CCC(CC(=O)O)(C4)C5)C[C@@H]3C2)NC(c2nccs2)=N[C@H]1c1cccc(F)c1C [Compound 58, 2-(4-((S)-7-(((S)-5-(Ethoxycarbonyl)-6-(3-Fluoro-2-Methylphenyl)-2-(Thiazol-2-Yl)-3,6-Dihydropyrimidin-4-Yl)Methyl)-3-Oxohexahydroimidazo[1,5-a]Pyrazin-2(3H)-Yl)Bicyclo[2.1.1]Hexan-1-Yl)Acetic Acid]
- CC50 at 5 days [1]: > 50000 nM
- Liver AUC(0→t) [2]: 175730 ng·h/g
- Liver Cmax [2]: 62519 ng/g
- Kp at 0.5 h [2]: 31
- Kp at 1 h [2]: 40
- Kp at 3 h [2]: 57
- Kp at 5 h [2]: 44
- concentration at 0.5 h [2, 4]: 62500 ng/g
- concentration at 1 h [2, 4]: 61300 ng/g
- concentration at 3 h [2, 4]: 26800 ng/g
- concentration at 5 h [2, 4]: 14200 ng/g
- AUC(0-t) ([2]; plasma): 4210 ng·h/mL
- Cmax ([2]; plasma): 2030 ng/mL
- concentration at 0.5 h [2, 5]: 2030 ng/mL
- concentration at 1 h [2, 5]: 1540 ng/mL
- concentration at 3 h [2, 5]: 470 ng/mL
- concentration at 5 h [2, 5]: 324 ng/mL
- EC50 [3]: 6 nM

SMILES: CCOC(=O)C1=C(CN2CCN3C(=O)N(C45CC(CO)(C4)C5)C[C@@H]3C2)NC(c2nccs2)=N[C@H]1c1cccc(F)c1C [Compound 2, Ethyl (S)-4-(3-Fluoro-2-Methylphenyl)-6-(((S)-2-(3-(Hydroxymethyl)Bicyclo[1.1.1]Pentan-1-Yl)-3-Oxohexahydroimidazo[1,5-a]Pyrazin-7(1H)-Yl)Methyl)-2-(Thiazol-2-Yl)-1,4-Dihydropyrimidine-5-Carboxylate]
- CC50 at 5 days [1]: > 50000 nM
- EC50 [3]: 3 nM

SMILES: CCOC(=O)C1=C(CN2CCN3C(=O)N(C45CC(CF)(C4)C5)C[C@@H]3C2)NC(c2nccs2)=N[C@H]1c1cccc(F)c1C [Compound 18, Ethyl (S)-4-(3-Fluoro-2-Methylphenyl)-6-(((S)-2-(3-(Fluoromethyl)Bicyclo[1.1.1]Pentan-1-Yl)-3-Oxohexahydroimidazo[1,5-a]Pyrazin-7(1H)-Yl)Methyl)-2-(Thiazol-2-Yl)-1,4-Dihydropyrimidine-5-Carboxylate]
- CC50 at 5 days [1]: > 50000 nM
- EC50 [3]: 3 nM

SMILES: CCOC(=O)C1=C(CN2CCN3C(=O)N(C45CCC(C(=O)O)(C4)C5)C[C@@H]3C2)NC(c2nccs2)=N[C@H]1c1cccc(F)c1C [Compound 56, 4-((S)-7-(((S)-5-(Ethoxycarbonyl)-6-(3-Fluoro-2-Methylphenyl)-2-(Thiazol-2-Yl)-3,6-Dihydropyrimidin-4-Yl)Methyl)-3-Oxohexahydroimidazo[1,5-a]Pyrazin-2(3H)-Yl)Bicyclo[2.1.1]Hexane-1-Carboxylic Acid]
- CC50 at 5 days [1]: > 50000 nM
- EC50 [3]: 16 nM

Source: patent US20240166649A1, “DIHYDROPYRIMIDINE COMPOUND, PREPARATION METHOD THEREFOR AND APPLICATION THEREOF” (Shanghai Visonpharma Co., Ltd., priority 2021, published 2024)
